# In patent US12391768B2, “Antibodies to ticagrelor and methods of use” (MEDIMMUNE LIMITED, priority 2014, dated 2025):
# Tests used:
# [1] = system: mouse tail bleeding; assay: Prophylactic mouse tail bleeding study; assay type: in vivo, mice
# Method: (§1) Mice were pre-treated with a continuous infusion of ticagrelor, 300 μg/kg/min or vehicle for 20 minutes. After stop of infusion, t=0, a bolus dose of TICA0212/MEDI2452 (600 mg/kg) or vehicle (histidine sucrose buffer) was given over 45 seconds and at t=30 minutes bleeding was induced by cutting 5mm from the tip of the tail. The tip of the tail was rinsed with water (2 mL/min) and the blood and water mixture was collected in a small chamber, where a stirrer mixed the fluid to enhance haemolysis and establish a homogeneous solution. Light transmission, at 525 nm, was recorded for 30 minutes when terminal blood samples were collected from the abdominal aorta for platelet aggregation. Light transmittance was transformed to absorbance and used to calculate blood loss as area under the absorbance curve (AUC, absorbance*s) and total bleeding time (BT, s) by plotting absorbance over time. All transmittance below 95% was defined as bleeding. Samples for platelet aggregation and total and free plasma exposure were also collected at end of ticagrelor infusion (t=0) and at time of tail cut (t=30 minutes).
# Studies were approved by the ethical committee for animal research at the University of Göteborg, Sweden. Mice were anaesthetised with isofluran gas (Forenc®, Abbot Scandinavia AB, Sweden). A catheter was inserted in the left jugular vein for administration of vehicle or drug. The body temperature was maintained at 38° C. by external heating.
# To translate the effect of TICA0212/MED12452 on platelet aggregation to a potential effect on bleeding, a prophylactic mouse tail bleeding study was performed. Ticagrelor was infused to a mean total ticagrelor and TAM plasma concentration of 7.6 and 0.3 μM, respectively, to provide a significant drug-dependant bleeding window. Immediately after stopping the ticagrelor infusion TICA0212/MEDI2452 was dosed as a single bolus of 600 mg/kg over 30 seconds. […] Bleeding was initiated by a tail cut and monitored for 30 minutes. In vehicle treated mice the mean total ticagrelor and TAM plasma concentration at time of tail cut were 2.4 and 0.6 μM. […] In this prophylactic setting TICA0212/MED12452 normalized ticagrelor dependent bleeding.
# [2] = system: ADP-induced platelet aggregation in whole blood; assay: Ex vivo whole blood impedance aggregometry after i.v. dosing of ticagrelor treated mice; assay type: in vivo; settings: for mean ADP-induced aggregation response: n=4
# Method: The speed of onset and the extent of TICA0212/MEDI2452 mediated reversal of ticagrelor mediated inhibition of ADP-induced platelet aggregation in whole blood (impedance aggregometry) was determined ex vivo after intravenous (i.v.) dosing of ticagrelor in mice. Mice were given ticagrelor i.v. as a bolus of 1200 μg/kg. over 5 minutes, followed by a 15 min continuous infusion of 30 μg/kg/min. After termination of the ticagrelor infusion, when ticagrelor plasma exposure was measured to be in average 1.4 μM, mice were given an i.v. bolus of 250 mg/kg TICA0212/MEDI2452. At 5, 30, and 60 min post TICA0212/MEDI2452 administration mice were sacrificed and blood samples were collected. In this study the ADP-induced aggregation response was measured for 6 min and data expressed as the mean area under the curve of aggregation unit (AU) recorded over time (AU*min).
# In carrying out the impedance aggregometry assay, mice were sacrificed and blood samples were collected into 7 μM hirudin. Blood (175 μL) was added to pre-heated […] (37° C., 175 μL) in the Multiplate mini test cells and mixed for 3 min before addition of ADP, 12 μL, to a final concentration of 6.5 μM. The disposable Multiplate mini test cells contain a stir bar and have two separate pair of electrodes that are immersed into the blood sample.
# When agonist (ADP) is added and shear is induced by stirring, platelets will start to adhere and aggregate onto the electrodes.
# as §1
# [3] = target: TICA0162 Fab; assay: HTRF competition binding selectivity assay, TICA0162 His-Fab; set-up: species or system human; settings: Table 7, DMSO normalised; 5 nM biotinylated ticagrelor, 1 nM His Fab; read-out: IC50 (uM) for inhibition of biotinylated ticagrelor binding to TICA0162 Fab
# Method: Total Binding control wells were set up which contained all of the assay components above except that 5 ul assay buffer was added in place of the test selectivity compound addition. Negative Binding control wells were set up which contained all of the assay components included in the Total Binding control wells except that 5ul assay buffer was added in place of the His-Fab addition. Test compound serial titrations were either ½ or ⅓ depending on the particular experiment and top final assay compound concentrations were optimized on a compound specific basis. The concentration of biotinylated ticagrelor and His-Fab was optimized on a Fab specific basis in separate experiments. For the four Fabs investigated at the end of the lead isolation phase (TICA0010, TICA0049, TICA0053 and TICA0072) the final assay reagent concentrations used are set out in Table 1 below:
# For the two Fabs investigated at the end of the lead optimization phase (TICA0162 and TICA0212) the final assay reagent concentrations used were 5nM biotinylated ticagrelor and 1 nM His Fab in both cases. […] In order to enable subsequent normalization of data to correct for any such vehicle related effects parallel titrations of DMSO alone were included in most experiments in which the final assay DMSO concentrations mirrored those of the test compound serial dilutions. At the end of the set up procedure that assay was incubated for 3hrs at RT before being read on an Envision plate reader using a standard read protocol. […]
# In those experiments where DMSO normalization was applied DMSO normalised % Specific Binding was calculated essentially according to the equation above except that in this case Total Binding Delta F was taken from wells containing all of the components in the Total Binding control wells as well as DMSO at a concentration equivalent to that in the relevant sample well.
# [4] = ticagrelor versus vehicle, p<0.05
# [5] = 5 min after ticagrelor infusion (1200 μg/kg bolus + 30 μg/kg/min) and bolus (PBS or 250 mg/kg Fab i.v.)
# [6] = 30 min after ticagrelor infusion (1200 μg/kg bolus + 30 μg/kg/min) and bolus (PBS or 250 mg/kg Fab i.v.)
# [7] = 60 min after ticagrelor infusion (1200 μg/kg bolus + 30 μg/kg/min) and bolus (PBS or 250 mg/kg Fab i.v.)
# [8] = 600 mg/kg bolus 30 min before tail cut, n=12
Molecule,"bleeding time over 30 minutes, enhancement [1, 4]","total blood loss over 30 minutes, enhancement [1, 4]","mean ADP-induced aggregation response [2, 5]","mean ADP-induced aggregation response [2, 6]","mean ADP-induced aggregation response [2, 7]",IC50 [3],"bleeding time relative ticagrelor alone [1, 8]","blood loss relative ticagrelor alone [1, 8]","ADP-induced aggregation ([2]; Example 12, 30 minutes after single bolus of 600 mg/kg, ticagrelor 300 μg/kg/min for 20 min)"
"CCCSc1nc(N[C@@H]2C[C@H]2c2ccc(F)c(F)c2)c2nnn([C@@H]3C[C@H](OCCO)[C@@H](O)[C@H]3O)c2n1 [Ticagrelor, (1S,2S,3R,5S)-3-[7-{[(1R,2S)-2-(3,4-difluorophenyl)cyclopropyl]amino}-5-(propylthio)-3H-[1,2,3]triazolo[4,5-d]pyrimidin-3-yl]-5-(2-hydroxyethoxy)cyclopentane-1,2-diol]",~1.6 fold,about 3.8 fold,2 AU*min,6 AU*min,14 AU*min,0.023 µM,,,
"TICA0212: combination of TICA0162 and TICA0152; VH SEQ ID NO:72, VL SEQ ID NO:77 (antibody, listed as Homo sapiens, V domains shown) VH: QVQLQESGAEVKKPGSSVRVSCKASGGTFDSYSIHWVRQAPGQGLEWMGGIIPAFGTLSSAQDFQARVTISADKSTSTAYMELSGLRSEDTAVYYCARGSFDYYFWSASHPPNDALAIWGQGTLVTVSS VL: QSVVTQPPSVSAAPGQKVTISCSGSNSDIGNNYVSWYQQLPGTAPKLLIYDNNKRPSGIPDRFSGSKSGTSATLAITGLQAGDEADYYCGTWLYDRAVGLFGGGTKVTVL",,,147 AU*min,448 AU*min,413 AU*min,,significantly (p<0.05) reversed,significantly (p<0.05) reversed,fully normalized
